Reference: US7900639B2, “Reconstituted tobaccos containing additive materials” (R. J. Reynolds Tobacco Company, priority 2003, dated 2011)

Columns and labels:
[1] = test system: bacteria; assay: Extracts tested for bacterial growth; conditions: test extract versus control extract without additive
[2] = room temperature

## Cc1c(C)c2c(c(C)c1O)CCC(C)(CCCC(C)CCCC(C)CCCC(C)C)O2 (stereo not drawn) [d-, l-alpha tocopherol]
[1]
  bacteria activity in the extract: significantly reduce
[2]; approximately 4% d-, l-alpha tocopherol on dried solids, five days, control began to ferment within two days
  condition of aqueous tobacco extract containing the additive on storage: remained unchanged
[2]; emulsified in test extract, five day test period
  separation of the additive in the tobacco extract: no separation
